Here are results for three compounds from PMC11879280, “Antimicrobial activity of peptoids against Metallo-β-lactamase-producing Klebsiella pneumoniae, Acinetobacter baumannii, Pseudomonas aeruginosa, and other WHO priority pathogens, including Candida auris” (Journal of Applied Microbiology, 2025).

Like-named read-outs stand apart in the source and are kept apart here. Square brackets hold non-standard residues; d marks the D form. Peptide text beside a SMILES is read from it. Nspe(4-Br) = C[C@H](NCC(=O)O)c1ccc(Br)cc1; N(tridecyl)Gly = CCCCCCCCCCCCCNCC(=O)O; Nspe = C[C@H](NCC(=O)O)c1ccccc1; Nlys = NCCCCNCC(=O)O

Assay [1] concerns ESKAPEE pathogens (all bacteria). Kind of assay: Geometric mean MIC, therapeutic index and selectivity ratio, all bacteria. Format: cell-based. The following applies: for Geometric mean MIC, all bacteria: across the 23 ESKAPEE strains. As to the method: (§1) Briefly, bacteria were suspended in cation-adjusted Mueller–Hinton broth (CAMHB; Oxoid, UK) for antibiotics, or MHB (Oxoid, UK) for peptidomimetics to obtain 5 × 10^5 colony forming unit (CFU) ml^−1. […] Positive controls contained only microbes, and blanks contained only media. Microbial suspensions (100 µl) were added to wells, plates wrapped, and incubated at 37°C, 120 rpm for 16–20 h. After incubation, suspensions were removed, log10 diluted, and plated on Trypticase Soya Agar with phosphatidylcholine and Tween 80 to determine minimum bactericidal or fungicidal concentration (MBC or MFC). […] Geometric mean MIC of the peptoids were calculated to evaluate the broad overview of antimicrobial activity across the pathogens.
(§2) The therapeutic indices (TIs) of the compounds were calculated with the use of following formula: […]

The subject of a further assay is C. auris strains. The settings on record: two C. auris strains. As to the method:
as §1, §2

For another assay, the system named is S. aureus 38. The method in brief: (§3)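 Incubation 37°C, 120 rpm, 16–20 h, starting from 5 × 10^5 CFU/ml in MHB (peptidomimetics) or cation-adjusted MHB (antibiotics). Bactericidal/fungicidal endpoints came from log10-diluted wells plated on Trypticase Soya Agar containing phosphatidylcholine and Tween 80; MICs also summarised as geometric means.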
In the next assay the test system is P. aeruginosa 33. The procedure, abridged:
as §3

The next assay relates to K. pneumoniae JIE2713. The method in brief: as §3
The test system of another assay is En. cloacae 001. The procedure, abridged:
as §3

In the next assay the test system is K. pneumoniae JIE4212. The method in brief:
as §3

Another assay deals with MBL-producing bacteria. Kind of assay: Geometric mean MIC, therapeutic index and selectivity ratio, MBL-producing bacteria. Format: cell-based. Here is the method: as §1
The test was performed as per the manufacturer’s instructions. Briefly, the strips were applied to a lawn culture of bacteria maintained at 1.5 × 10^8 CFU ml^−1 on Mueller–Hinton agar (Oxoid, UK) and incubated for 20 h at 37°C.
as §2

The test system of another assay is Enterobacteriaceae. The assay is described as follows: Geometric mean MIC, therapeutic index and selectivity ratio, Enterobacteriaceae. The format is cell-based. The settings on record: Enterobacteriaceae (E. coli, K. pneumoniae, and E. aerogenes). Here is the method: as §1, §2
[2] abbreviates: CBS 10 913, RPMI 1640 with MOPS, 5 × 10^3 CFU ml^−1, ≥90% reduction (≥50% for fluconazole).
[3] abbreviates: S. aureus 38, MHB (melimine/Mel4 with 0.2% BSA, 0.01% acetic acid), mean MIC.
Setting [4] is: P. aeruginosa 33, MHB (melimine/Mel4 with 0.2% BSA, 0.01% acetic acid), mean MIC.
Setting [5] is: K. pneumoniae JIE2713, MHB (melimine/Mel4 with 0.2% BSA, 0.01% acetic acid), mean MIC.
[6] abbreviates: En. cloacae 001, MHB (melimine/Mel4 with 0.2% BSA, 0.01% acetic acid), mean MIC.
Where [7] appears, read: K. pneumoniae JIE4212, MHB (melimine/Mel4 with 0.2% BSA, 0.01% acetic acid), mean MIC.

In the case of `C[C@@H](c1ccc(Br)cc1)N(CC(N)=O)C(=O)CN(C(=O)CN(CCCCN)C(=O)CN(C(=O)CN(C(=O)CNCCCCN)[C@@H](C)c1ccccc1)[C@@H](C)c1ccc(Br)cc1)[C@@H](C)c1ccccc1` [TM2] (H-[Nlys][Nspe][Nspe(4-Br)][Nlys][Nspe][Nspe(4-Br)]-NH2), the “Geometric mean MIC, all bacteria” value in assay [1] was determined as 26.1 µg/mL; in [1] (value in brackets), 24.2 µM. For the same compound, the figures for the “MIC against C. auris” value against C. auris CBS10913 (setting [2]) and in the assay on C. auris CBS10913 (CBS10913) were 31.25 µg/mL and 29 µM, respectively. Further, the “Geometric mean MICCA” value in the assay with C. auris strains is 11.1 µg/mL. For the same compound, the MIC of peptidomimetics is 7.2 µM in the assay on S. aureus 38 (38); 7.8 µg/mL in the assay on S. aureus 38 (setting [3]); 29.0 µM with P. aeruginosa 33 (33); 31.3 µg/mL in the assay with P. aeruginosa 33 (setting [4]); 116.2 µM in the assay with K. pneumoniae JIE2713 (JIE2713); 125 µg/mL in the assay with K. pneumoniae JIE2713 (setting [5]). Besides, the MIC of peptidomimetics in the assay on En. cloacae 001 is 29.0 µM; in the assay with En. cloacae 001 (setting [6]) it was 31.3 µg/mL; in the assay with K. pneumoniae JIE4212 (JIE4212), 58.1 µM; in the assay with K. pneumoniae JIE4212 (setting [7]), 62.5 µg/mL. For the same compound, the “Geometric mean MICMBL” value with MBL-producing bacteria is 28.7 µg/mL. The “Geometric mean MICE” value in the assay with Enterobacteriaceae came to 58.3 µg/mL.

Regarding `C[C@@H](c1ccccc1)N(CC(N)=O)C(=O)CN(CCCCN)C(=O)CN(C(=O)CN(C(=O)CN(CCCCN)C(=O)CN(C(=O)CN(C(=O)CN(CCCCN)C(=O)CN(C(=O)CN(C(=O)CNCCCCN)[C@@H](C)c1ccccc1)[C@@H](C)c1ccccc1)[C@@H](C)c1ccccc1)[C@@H](C)c1ccccc1)[C@@H](C)c1ccccc1)[C@@H](C)c1ccccc1` [TM6] (H-[Nlys][Nspe][Nspe][Nlys][Nspe][Nspe][Nlys][Nspe][Nspe][Nlys][Nspe]-NH2), the “Geometric mean MIC, all bacteria” value amounted to 17.6 µg/mL in assay [1] and 10.6 µM in assay [1] (value in brackets). The “MIC against C. auris” value against C. auris CBS10913 (setting [2]) came out at 31.25 µg/mL; in the assay on C. auris CBS10913 (CBS 10 913, value in brackets), 18.8 µM. In addition, the “Geometric mean MICCA” value with C. auris strains amounted to 7.9 µg/mL. In addition, the MIC of peptidomimetics was 7.8 µg/mL with S. aureus 38 (setting [3]); 4.7 µM with S. aureus 38 (S. aureus 38, value in brackets); 31.3 µg/mL in the assay on P. aeruginosa 33 (setting [4]); 18.8 µM in the assay on P. aeruginosa 33 (P. aeruginosa 33, value in brackets); 62.5 µg/mL in the assay with K. pneumoniae JIE2713 (setting [5]); 37.7 µM in the assay with K. pneumoniae JIE2713 (K. pneumoniae JIE2713, value in brackets). Further, the MIC of peptidomimetics in the assay with En. cloacae 001 (setting [6]) came out at 15.6 µg/mL; in the assay on En. cloacae 001 (En. cloacae 001, value in brackets), 9.4 µM; in the assay with K. pneumoniae JIE4212 (setting [7]), 15.6 µg/mL; in the assay on K. pneumoniae JIE4212 (K. pneumoniae JIE4212, value in brackets), 9.4 µM. Further, the “Geometric mean MICMBL” value with MBL-producing bacteria was 18.6 µg/mL. Further, the “Geometric mean MICE” value in the assay with Enterobacteriaceae came out at 29.1 µg/mL.

On to `CCCCCCCCCCCCCNCC(=O)N(CCCCN)CC(=O)N(CC(=O)N(CC(=O)N(CCCCN)CC(=O)N(CCCCN)CC(N)=O)[C@@H](C)c1ccccc1)[C@@H](C)c1ccccc1` [TM15] (H-[N(tridecyl)Gly][Nlys][Nspe][Nspe][Nlys][Nlys]-NH2), for which the “Geometric mean MIC, all bacteria” value came to 32.2 µg/mL in assay [1] and 33.4 µM in assay [1] (value in brackets). For the same compound, the “Fold increase in geometric mean MIC relative to TM8” value in [1] (bacteria) stood at 4 fold. For the same compound, the “MIC against C. auris” value was determined as 250 µg/mL against C. auris CBS10913 (setting [2]) and 259.6 µM with C. auris CBS10913 (CBS10913). Further, the MIC of peptidomimetics with S. aureus 38 (38) was determined as 8.1 µM; in the assay with S. aureus 38 (setting [3]) it was 7.8 µg/mL; with P. aeruginosa 33 (33) it was 16.2 µM; in the assay on P. aeruginosa 33 (setting [4]) it was 15.6 µg/mL; in the assay with K. pneumoniae JIE2713 (JIE2713), 129.8 µM; in the assay with K. pneumoniae JIE2713 (setting [5]), 125 µg/mL. For the same compound, the MIC of peptidomimetics in the assay with En. cloacae 001 was 16.2 µM; with En. cloacae 001 (setting [6]), 15.6 µg/mL; in the assay with K. pneumoniae JIE4212 (JIE4212), 64.9 µM; in the assay with K. pneumoniae JIE4212 (setting [7]), 62.5 µg/mL. Also, the “Geometric mean MICMBL” value in the assay on MBL-producing bacteria is 52.6 µg/mL. Further, the “Geometric mean MICE” value in the assay on Enterobacteriaceae worked out at 50.8 µg/mL.
